Test results: patent US12486273B2 (Hoffmann-La Roche Inc., priority 2019, dated 2025)

Tests used:
human TLR8 = human TLR8 (Homo sapiens (Human), UniProt Q9NR97); assay: HEK293-Blue-hTLR-8 cells assay; assay type: cell-based; conditions: HEK293-Blue-hTLR8 cells, R848 stimulation, 20 hrs, SEAP reporter; read-out: HEK/hTLR8 IC50
hERG channel = hERG channel (Homo sapiens (Human), UniProt Q12809); assay: hERG channel inhibition assay; assay type: cell-based; conditions: patch-clamp; for IC50: CHO hERG cells; for IC20: human, CHO cells stably expressing hERG
Sequence of hERG channel (Q12809 whole entry): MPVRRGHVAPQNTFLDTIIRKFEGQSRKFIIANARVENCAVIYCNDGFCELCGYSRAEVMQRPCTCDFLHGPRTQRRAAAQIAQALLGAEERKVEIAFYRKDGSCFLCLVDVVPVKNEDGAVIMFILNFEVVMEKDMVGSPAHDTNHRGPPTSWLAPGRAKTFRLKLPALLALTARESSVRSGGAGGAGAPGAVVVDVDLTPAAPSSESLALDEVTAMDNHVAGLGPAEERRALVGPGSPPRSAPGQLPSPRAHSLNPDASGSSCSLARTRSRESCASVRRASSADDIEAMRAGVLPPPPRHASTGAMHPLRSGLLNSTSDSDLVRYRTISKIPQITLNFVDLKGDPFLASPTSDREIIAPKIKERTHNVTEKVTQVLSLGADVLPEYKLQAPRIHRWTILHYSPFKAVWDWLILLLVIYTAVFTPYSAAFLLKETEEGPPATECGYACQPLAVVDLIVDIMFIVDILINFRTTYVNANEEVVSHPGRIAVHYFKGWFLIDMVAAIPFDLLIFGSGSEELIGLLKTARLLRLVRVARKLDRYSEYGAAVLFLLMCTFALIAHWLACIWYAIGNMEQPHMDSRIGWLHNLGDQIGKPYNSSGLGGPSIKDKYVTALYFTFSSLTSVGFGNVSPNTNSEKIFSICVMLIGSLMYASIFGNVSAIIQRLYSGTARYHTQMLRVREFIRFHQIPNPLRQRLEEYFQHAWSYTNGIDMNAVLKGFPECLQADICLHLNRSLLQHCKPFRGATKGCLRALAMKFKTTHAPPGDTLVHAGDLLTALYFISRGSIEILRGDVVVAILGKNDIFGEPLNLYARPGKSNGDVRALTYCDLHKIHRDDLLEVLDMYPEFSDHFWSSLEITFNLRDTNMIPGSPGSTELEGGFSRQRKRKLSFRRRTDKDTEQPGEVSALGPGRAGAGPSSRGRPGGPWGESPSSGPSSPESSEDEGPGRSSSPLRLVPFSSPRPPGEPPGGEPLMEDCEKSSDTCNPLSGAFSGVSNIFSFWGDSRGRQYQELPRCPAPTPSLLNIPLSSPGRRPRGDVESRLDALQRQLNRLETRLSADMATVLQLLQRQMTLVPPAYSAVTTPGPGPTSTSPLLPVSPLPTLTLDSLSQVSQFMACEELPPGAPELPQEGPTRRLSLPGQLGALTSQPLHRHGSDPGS
Procedure: hERG Channel Inhibition Assay
The hERG K^+ channels were cloned in humans and stably expressed in a CHO (Chinese hamster ovary) cell line. CHOhERG cells were used for patch-clamp (voltage-clamp, whole-cell) experiments. Cells were stimulated by a voltage pattern to activate hERG channels and conduct IKhERG Currents (rapid delayed outward rectifier potassium current of the hERG channel). After the cells were stabilized for a few minutes, the amplitude and kinetics of IKhERG were recorded at a stimulation frequency of 0.1 Hz (6 bpm). Thereafter, the test compound was added to the preparation at increasing concentrations. For each concentration, an attempt was made to reach a steady-state effect, usually, this was achieved within 3-10 min at which time the next highest concentration was applied. The amplitude and kinetics of IKhERG are recorded in each concentration of the drug which were compared to the control values (taken as 100%). (references: Redfern WS, Carlsson L, Davis A S, Lynch W G, MacKenzie I, Palethorpe S, Siegl P K, Strang I, Sullivan A T, Wallis R, Camm A J, Hammond T G. 2003; Relationships between preclinical cardiac electrophysiology, clinical QT interval prolongation and torsade de pointes for a broad range of drugs: evidence for a provisional safety margin in drug development. Cardiovasc. Res. 58:32-45, Sanguinetti M C, Tristani-Firouzi M. 2006; hERG potassium channels and cardiac arrhythmia. Nature 440:463-469, Webster R, Leishman D, Walker D. 2002; Towards a drug concentration effect relationship for QT prolongation and torsades de pointes. Curr. Opin. Drug Discov. Devel. 5:116-26).

Sequence of human TLR8 (Q9NR97 27-1041): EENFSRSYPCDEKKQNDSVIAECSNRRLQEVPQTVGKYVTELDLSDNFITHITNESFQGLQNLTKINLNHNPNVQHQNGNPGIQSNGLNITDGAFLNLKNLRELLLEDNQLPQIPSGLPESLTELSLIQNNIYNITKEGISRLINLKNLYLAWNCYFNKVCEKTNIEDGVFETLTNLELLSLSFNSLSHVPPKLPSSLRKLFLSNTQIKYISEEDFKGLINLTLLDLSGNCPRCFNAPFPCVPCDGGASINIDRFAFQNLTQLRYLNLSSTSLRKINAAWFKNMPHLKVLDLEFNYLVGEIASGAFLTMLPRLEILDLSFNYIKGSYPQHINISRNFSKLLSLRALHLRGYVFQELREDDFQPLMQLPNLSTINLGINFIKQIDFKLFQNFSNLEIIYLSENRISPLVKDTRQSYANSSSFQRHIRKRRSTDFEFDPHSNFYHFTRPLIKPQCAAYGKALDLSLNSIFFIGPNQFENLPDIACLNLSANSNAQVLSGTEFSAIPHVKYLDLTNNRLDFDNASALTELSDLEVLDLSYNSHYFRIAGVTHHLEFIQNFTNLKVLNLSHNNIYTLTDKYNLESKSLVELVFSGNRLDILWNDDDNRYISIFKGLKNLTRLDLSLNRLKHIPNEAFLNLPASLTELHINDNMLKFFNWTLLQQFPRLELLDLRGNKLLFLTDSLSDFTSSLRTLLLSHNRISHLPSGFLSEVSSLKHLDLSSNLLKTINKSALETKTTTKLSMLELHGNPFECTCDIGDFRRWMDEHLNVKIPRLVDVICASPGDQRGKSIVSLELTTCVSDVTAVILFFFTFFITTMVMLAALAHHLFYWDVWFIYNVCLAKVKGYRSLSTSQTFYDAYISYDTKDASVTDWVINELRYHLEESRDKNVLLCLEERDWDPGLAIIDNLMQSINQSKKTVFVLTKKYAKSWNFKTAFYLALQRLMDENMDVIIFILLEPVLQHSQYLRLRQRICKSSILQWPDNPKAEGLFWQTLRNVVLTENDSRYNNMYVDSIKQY

SMILES | IC50 (human TLR8) [µM] | IC50 (hERG channel) [µM] | IC20 (hERG channel) [µM]
C[C@@H]1CN(c2ccc(C#N)c3ncccc23)C[C@@H]2C[C@@H](Nc3ccc4c(n3)CCNC4)CN21 [Example 1, 5-[(4R,7R,8aS)-4-methyl-7-(5,6,7,8-tetrahydro-1,6-naphthyridin-2-ylamino)-3,4,6,7,8,8a-hexahydro-1H-pyrrolo[1,2-a]pyrazin-2-yl]quinoline-8-carbonitrile] | 0.0134 | > 20 | > 10
C[C@@H]1CN(c2ccc(C#N)c3ncccc23)C[C@@H]2C[C@@H](Nc3cc4c(cn3)CCNC4)CN21 [Example 2, 5-[(4R,7R,8aS)-4-methyl-7-(5,6,7,8-tetrahydro-2,6-naphthyridin-3-ylamino)-3,4,6,7,8,8a-hexahydro-1H-pyrrolo[1,2-a]pyrazin-2-yl]quinoline-8-carbonitrile] | 0.0125 | > 20 | > 10
C[C@@H]1CN(c2ccc(C#N)c3ncccc23)C[C@@H]2C[C@@H](Nc3ccc4c(n3)CNCC4)CN21 [Example 3, 5-[(4R,7R,8aS)-4-methyl-7-(5,6,7,8-tetrahydro-1,7-naphthyridin-2-ylamino)-3,4,6,7,8,8a-hexahydro-1H-pyrrolo[1,2-a]pyrazin-2-yl]quinoline-8-carbonitrile] | 0.0184 | > 20 | > 10
[2H]c1ccc2c(N3C[C@@H]4C[C@H](N5CCNCC5)CN4[C@H](C)C3)ccc(C#N)c2n1 [Example 15, 5-[(4R,7S,8aS)-4-methyl-7-piperazin-1-yl-3,4,6,7,8,8a-hexahydro-1H-pyrrolo[1,2-a]pyrazin-2-yl]-2-deuterio-quinoline-8-carbonitrile] | 0.0203 | > 20 | > 10
[2H]c1ccc2c(N3C[C@@H]4C[C@H](N5CCC(N(C)C)CC5)CN4[C@H](C)C3)ccc(C#N)c2n1 [Example 20, 5-[(4R,7S,8aS)-7-[4-(dimethylamino)-1-piperidyl]-4-methyl-3,4,6,7,8,8a-hexahydro-1H-pyrrolo[1,2-a]pyrazin-2-yl]-2-deuterio-quinoline-8-carbonitrile] | 0.0183 | > 20 | > 10
